Laboratory results: US8318943B1, “Sorbitol/dexlansoprazole co-crystals and method for making same” (Takeda Pharmaceuticals U.S.A., Inc., priority 2010, dated 2012)
Marks after values point to notes of the source that are not given here.

What was measured:
[1] = Aqueous solubility, 24 h equilibration, HPLC of filtrate; assay type: physicochemical
Method: (§1) HPLC was carried out in a TSP instrument with a P4000 pump, an AS3000 autosampler, an SCM1000 degasser, a UV3000 detector, and PC1000 Version 4.1 software.
The pH of the corresponding saturated solution was 6.1. […] This may be due to chemical instability of dexlansoprazole in the solution environment.

[2] = Dynamic vapor sorption (DVS), hygroscopicity; assay type: physicochemical; details: for DVS weight gain at 85% relative humidity: 85% r.h.
Method: DVS was carried out in a Surface Measurement System DVS-1. The sample was placed on a platinum holder on top of a microbalance and allowed to equilibrate for 2 hours at 50% r.h. before starting the pre-defined humidity program: 50→95% r.h. (5%/h); 5 hours at 95% r.h., 95→0% r.h. (5%/h); 5 h at 0% r.h., then 0→50% r.h. (5%/h); and 2 hours at 50% r.h.
The hygroscopicity was classified based on the mass gain at 85% r.h. relative to the initial mass as follows: deliquescent (sufficient water adsorbed to form a liquid), very hygroscopic (mass increase of ≧15%), hygroscopic (mass increase <15% but ≧2%), slightly hygroscopic (mass increase <2% but ≧0.2%), or non-hygroscopic (mass increase <0.2%).
In order to examine the behavior of SP134-SBT-P26 in the presence of variable water vapor pressure, the sample was analyzed by isothermal DVS at 25° C. […] The sample was conditioned at 50% r.h. before starting a pre-defined humidity program with a scanning rate of 5% r.h. change per hour. Below 50% r.h. a small but continuous mass loss of the sample is observed (˜0.07%). This mass loss is in good accordance to the results of the TG-FTIR-measurement and Karl Fischer water content determination.
In order to examine the behavior of SP134-SBT-P27 in the presence of variable water vapor pressure, the sample was analyzed by isothermal DVS at 25° C. The sample was conditioned at 50% r.h. before starting a pre-defined humidity program with a scanning rate of 5% r.h. change per hour. Below 50% r.h. a small but continuous mass loss of the sample is observed (˜0.06%). This mass loss is in good accordance to the results of the TG-FTIR-measurement and Karl Fischer water content determination.

[3] = Approximate solubility by manual dilution combined with visual observation; details: room temperature
Method: The approximate solubilities of the sorbitol co-crystal former were estimated at 60° C. and of the 1:1 dexlansoprazole-sorbitol co-crystal at 40° C. and 10° C. […] The solubility values presented are intended to be regarded as rough estimates and are to be used solely for the design of crystallization experiments. All solvent mixtures are listed as ratios by volume (v/v).
The solubility values presented are intended to be regarded as rough estimates and are to be used solely for the design of crystallization experiments. All solvent mixtures are listed as ratios by volume (v/v).

[4] = Stability of the co-crystal as a solid and in water or solution; details: for Stability in water for 24 hours: 25° C., disintegration into its components
Method: Solubility was determined by adding approximately 0.5 mL of doubly distilled water to 19.1 mg of the substance to be measured. The resulting suspension was equilibrated in a temperature-controlled Eppendorf Thermomixer Comfort Shaker for 24 hours at 25° C. at a shaking rate of 500 rpm. The solid phase was recovered by filter centrifugation (0.1-μm PVDF membrane) and examined by FT-Raman spectroscopy. Concentrations in the filtrate (i.e., saturated solutions) or diluted solutions thereof were determined using the HPLC method disclosed herein. The pH of the saturated solution was determined with a Metrohm 713 pH meter.

[5] = Kinetic solubility experiment in water; assay type: physicochemical
Method: as §1
A further experiment to evaluate the kinetic solubility was carried out. The maximum was reached already after 15 minutes and that the concentration in the solution remained constant for the duration of the experiment.

In the case of `Cc1c(OCC(F)(F)F)ccnc1C[S+]([O-])c1nc2ccccc2[nH]1.Cc1c(OCC(F)(F)F)ccnc1C[S+]([O-])c1nc2ccccc2[nH]1.OCC(O)C(O)C(O)C(O)CO.OCC(O)C(O)C(O)C(O)CO.OCC(O)C(O)C(O)C(O)CO` (centres unmarked) [SP134-SBT-P7], the Solubility in water ([1]; 24 hours equilibration at 22° C., solid residue was free drug, so value corresponds to free drug) is reported as 0.18 mg/mL, the “pH of the saturated solution” value ([1]; water, 24 hours equilibration) is reported as 6.1 and the “Reversibility of DVS weight gain and loss” value [2] is reported as “reversible”. The “DVS weight loss at 0% r.h. relative to the starting weight” value ([2]; 0% r.h.) was < 1 wt.-%, the “DVS weight increase at 50% r.h. on desorption relative to the starting weight” value ([2]; 50% r.h. after lowering from 95% r.h.) was ~1 wt. % and the “DVS step in weight gain” value ([2]; 70-75% r.h.) was ~4 wt.-%. The “DVS weight gain at 85% relative humidity” value [2] was “(~70-75% r.h.), gain of ~7 wt.-% at 85% r.h.;”, the “DVS weight gain at 85% relative humidity” value ([2]; listed as sorbitol co-crystal) was ~7 wt.-% and the “FT-Raman post-DVS compared with pre-DVS/reference (form change)” value ([2]; after DVS cycle) was “no significant changes”. For the same molecule, the Hygroscopicity class ([2]; mass gain at 85% r.h. relative to the initial mass, listed as sorbitol co-crystal) was “hygroscopic (mass increase <15% but ≧2%)”, the “DVS weight gain at 95% relative humidity” value ([2]; r.h. raised from 50% to 95%) was 20 wt.-% and the “solubility” value ([3]; 1:1 EtOAc/DMSO) was >200 mg/mL. The “Solubility (mg/mL)” value ([3]; 1:1 EtOH/H2O) was 50-100^a mg/mL, the “solubility” value ([3]; 2:1 EtOH/H2O + 5 vol.-% NH3 solution) was 60 to 100 mg/mL and the “solubility” value ([3]; 2:1 MeOH/H2O + 5 vol.-% NH3 solution) was 60 to 100 mg/mL. The “Solubility (mg/mL)” value ([3]; 2:1 MeOH/borax buffer (pH = 9.0)) was 45-65^a mg/mL, the “solubility” value ([3]; 9:1 EtOAc/DMSO) was ~10 mg/mL and the “solubility” value ([3]; EtOAc) was <1 mg/mL. For the same molecule, the “Solubility (mg/mL)” value ([3]; H2O) was 0.25^a mg/mL, the “Stability as a solid” value ([4]; solid) was “stable” and the “Stability in water for 24 hours” value [4] was “solid form not stable in H2O for 24 h, disintegrates”. For the same molecule, the “Stability in water for 24 hours” value ([4]; listed as dexlansoprazole/sorbitol co-crystal) was “not stable”, the “Solubility as a function of time, constant value reached” value ([5]; after 15 minutes) was 0.25 mg/mL and the “Kinetic solubility in water” value ([5]; 15 min) was 0.25 mg dexlansoprazole per ml. The “Kinetic solubility in water” value ([5]; 30 min) was 0.26 mg dexlansoprazole per ml, the “Kinetic solubility in water” value ([5]; 1 hour) was 0.26 mg dexlansoprazole per ml and the “Kinetic solubility in water” value ([5]; 2 hour) was 0.24 mg dexlansoprazole per ml. The “Kinetic solubility in water” value ([5]; 4 hrs.) was 0.27 mg dexlansoprazole per ml and the “Kinetic solubility in water” value ([5]; 8 hrs.) was 0.27 mg dexlansoprazole per ml.
